# Data from patent US10865376B2, “Method for detecting the presence or absence of biological particles” (bioMérieux, priority 2014, dated 2020).
# Tests used:
# Type in all cases: cell-based
# [1] = tested on: Escherichia coli (ATCC 35218); assay: Minimum inhibitory concentration / inhibition zone from the normed representation (ombroscopy image plus ruler)
# Text: (§1) The impregnated support 5 is for example also a slender strip, of overall rectangular conformation. The strip comprises for example a concentration of chemical agent 3 that follows an increasing concentration gradient from one short edge to an opposite short edge of the strip. In FIG. 19, the fifth processing step 105 comprises a second phase X2 of taking a control photograph 7' of a ruler 15 arranged on the culture medium 2 contained in the Petri dish 4, the second phase X2 also being carried out by the detecting device 12. Then the fifth processing step 105 comprises a third phase X3 of superimposing the image 7 and the control photograph 7' and more particularly of their respective receiving zone R to form a normed representation 7'' of the culture medium 2. In FIG. 20, the fifth processing step 105 comprises a fourth phase X4 of localization of a reference mark 16 of the ruler 15. In the example shown, the reference mark 16 is the indication “256” on the ruler 15, and the reference mark 16 may consist of some other and relatively any indication. The reference mark 16 comprises Cartesian coordinates […] and […]. In FIGS. 21 to 25, the fifth processing step 105 comprises a fifth phase X5 of processing the normed representation 7''. In FIG. 21, the fifth phase X5 comprises at least one smoothing operation for homogenizing the normed representation 7''. […]
# [2] = tested on: Escherichia coli (ATCC 25922); assay: Minimum inhibitory concentration calculated from the normed representation (ombroscopy image plus ruler); conditions: starting from six hours, FIGS. 26 and 27
# Text: as §1
# [3] = tested on: Staphylococcus aureus (ATCC 25923); assay: as above; conditions: starting from six hours, FIG. 28
# Text: as §1
# [4] = tested on: Escherichia coli (ATCC 35218); assay: Detection of the inhibition zone around a support impregnated with antibiotic, by ombroscopy / micro-ombroscopy
# Text: (§2) In general terms, referring to FIG. 2, the method of detection 100 of the present invention comprises a first step 101 of seeding the culture medium 2 with an extract of biological particles 1. The extract of biological particles 1 is for example a raw sample of biological particles 1 taken from the patient directly. In this case the raw sample undergoes a preculture phase for isolating strains of biological particles 1 present, in the case of a sample comprising a diversity of biological particles 1, and increase of the biological particles 1 selected and isolated. […] The sample of biological particles 1 has a biomass of biological particles 1 that is sufficient to be analyzed validly, such as a standard at a concentration of 0.5 McFarland. The extract of biological particles 1 is for example from urine, blood, cerebrospinal fluid or a similar biological fluid.
# (§3) The culture medium 2 is for example flooded with the extract of biological particles 1, or the culture medium 2 is seeded with biological particles 1 by swabbing, or the culture medium 2 receives the biological particles by spreading them using a rake. Then, the Petri dish 4 is agitated transversely to distribute the extract of biological particles 1 as uniformly as possible on the culture medium 2, and then any supernatant is removed from the Petri dish 4. The first step of seeding 101 may have features different from those described above without departing from the rules of the present invention.
# The method of detection 100 then comprises a second step 102 of receiving at least one dose of the chemical agent 3 at the initial time point T0, for example starting from placement of at least one impregnated support 5 inoculated with the chemical agent 3 on a receiving zone R of the impregnated support 5 on the culture medium 2.
# The impregnated support 5 is for example a disk impregnated with the chemical agent 3, the disk having the overall conformation of a thin slice of a cylinder. The disk comprises an amount of chemical agent 3 that is homogeneous overall in its volume. […]
# [5] = tested on: Escherichia coli (ATCC 25922); assay: Detection of the inhibition zone around a support impregnated with antibiotic, by micro-ombroscopy; conditions: micro-ombroscopy (FIG. 10 device), detection time TX of two hours
# Text: as §2
# as §3, with “The first step of seeding 101 may have features different from those described above without departing from the rules of the present invention.” left out
smiles,measurement,setting,value
CC1(C)S[C@@H]2[C@H](NC(=O)[C@H](N)c3ccccc3)C(=O)N2[C@H]1C(=O)O [ampicillin],response from the normed representation,"[1]; FIG. 29, based on absence of a first inhibition zone Z1",resistant
same,"response from the normed representations, according to EUCAST",[1]; FIG. 30,resistant
same,response characterized from the calculated minimum concentration MIC,[2],sensitive
same,response characterized from the calculated minimum concentration MIC,[3],sensitive
same,response of the biological particles to the chemical agent (sensitivity / resistance),"[4]; micro-ombroscopy (FIG. 10 device), detection time TX of four hours",resistance
same,response of the biological particles to the chemical agent (sensitivity / resistance),"[4]; ombroscopy (FIG. 9 device), identifiable starting from four hours, images up to twenty-four hours",resistance
same,presence or absence of inhibition zone,"[4]; ombroscopy (FIG. 9 device), starting from four hours",no inhibition zone is detected
same,response of the biological particles to the chemical agent (sensitivity / resistance),[5],sensitivity
